Several values for one entry are separate records, joined by “and”; a condition that tells them apart may be missing. Equal entries are not always repeated. Where two headings read alike, the source gives them in different places.
Experiments:
LAPC4 cells = assay: Androgen-dependent cell-based assay (DHT, LAPC4); details: for IC50: Homo sapiens, DHT-induced, androgen-dependent LAPC4 prostate cancer cell line, read-out: LAPC4 IC50
Procedure: Androgen-Dependent Cell-based Assay. As described by Jones and Diamond (2008), LAPC4 cells were cultured in phenol red free RPMI 1640 media supplemented with antibiotics and 10% FBS. […] […] Mean-effect plots (log[compound] vs. log[fractional effect]) were generated to determine the IC50 values for each test compound or combinations of test compounds at constant ratios.

[1] = Kinetic solubility (nephelometry); format: physicochemical; details: aqueous buffer, kinetic from dmso stock; kinetic solubility, pH 6.5 phosphate buffer; read-out: Sol6.5
Procedure: Kinetic Solubility. Compounds in DMSO (10 mg/mL) were diluted into either pH 6.5 phosphate buffer or 0.01 M HCl (approx. pH 2.0) with the final DMSO concentration being 1%. Samples were then analysed via nephelometry to determine a solubility range (Bevan and Lloyd, 2000).

[2] = Partition coefficient (Log D) by gradient HPLC; format: physicochemical; details: pH 7.4, chromatographic estimate; read-out: gLogD7.4
Excerpt: Partition Coefficient. Partition coefficient values (Log D) of the test compounds were estimated by correlation of their chromatographic retention properties against the characteristics of a series of standard compounds with known partition coefficient values using gradient HPLC (modification of a method reported by Lombardo et al., 2001).

[3] = In vitro metabolic stability, human liver microsomes; format: in vitro ADME; details: human liver microsomes; read-out: h CLint
Procedure: (§1) In Vitro Metabolic Stability. As described by Charman et al. (2020), metabolic stability assays were performed by incubating test compounds in liver microsomes at 37° C. and 0.4 mg/mL protein concentration. The metabolic reaction was initiated by the addition of an NADPH-regenerating system and quenched at various time points over a 60 min incubation period by the addition of acetonitrile containing diazepam as internal standard. Control samples (containing no NADPH) were included (and quenched at 2, 30 and 60 min) to monitor for potential degradation in the absence of cofactor.

[4] = In vitro metabolic stability, mouse liver microsomes; format: in vitro ADME; details: mouse liver microsomes; read-out: m CLint
Procedure: as §1

[5] = Stability in dog cryopreserved hepatocytes; format: in vitro ADME; details: for CLint: Dog cryopreserved hepatocytes
[6] = Stability in mouse cryopreserved hepatocytes; format: in vitro ADME
[7] = Plasma protein binding, dog plasma; format: in vitro ADME; details: read-out: % bound (converted)
[8] = Plasma protein binding, rat plasma; format: in vitro ADME; details: read-out: % bound (converted)
[9] = Plasma protein binding, mouse plasma; format: in vitro ADME; details: for fraction unbound: mouse, plasma, read-out: % bound (converted)
CYP 2C9 = CYP 2C9 (Homo sapiens (Human), UniProt P11712); assay: CYP inhibition in human liver microsomes, 2C9
CYP 2D6 = CYP 2D6 (Homo sapiens (Human), UniProt P10635); assay: CYP inhibition in human liver microsomes, 2D6
androgen-receptor = assay: DHT-induced (KLK3, FKBP5) and DHT-repressed (ZFP36L1) transcripts in LAPC4 cells; format: cell-based; details: Compound IE up to 10 μM
adult S. mansoni = assay: ex vivo exposure of adult S. mansoni; parameters: species or system Schistosoma mansoni; details: S. mansoni worms exposed ex vivo
Excerpt: Without wishing to be bound to any particular theory, it is believed that the activity of the disclosed compounds is mediated at least in part by a host effect.

S. haematobium = S. haematobium infections in hamsters; format: in vivo; details: single 50 mg/kg oral dose
S. japonicum [10] = assay: S. japonicum infections in hamsters; format: in vivo
S. japonicum [11] = assay: S. japonicum infections in mice; format: in vivo
[12] = In vitro metabolic stability, rat microsomes; format: in vitro ADME; details: liver microsomes
Procedure: as §1

[13] = In vitro metabolic stability, dog microsomes; format: in vitro ADME; details: liver microsomes
Procedure: as §1

[14] = Chemical stability (acid, base, H2O2); format: physicochemical
Procedure: Samples were neutralised and diluted to a nominal concentration of 100 μg/mL in 50% aq MeOH. […] A single degradation peak appeared in all the basic samples corresponding to the urea carboxylic acid hydrolysis product.

[15] = Whole blood to plasma partitioning, human; format: in vitro ADME
in vivo = assay: in vivo; parameters: species or system dog; details: for clearance: read-out: Plasma CL; for AUC(0-t): read-out: mean AUClast; for C0: read-out: mean plasma concentration extrapolated to time zero (C0); for MTD: Beagle dogs, read-out: maximum tolerated dose (MTD); for NOAEL: male and female Beagle dogs, read-out: no observed adverse effect level (NOAEL)
Procedure: The same 2M/2F dogs were used following 2-week washout periods for each dose level in escalation order. This was a survival study and animals were not sacrificed. The following parameters were evaluated: mortality/morbidity, clinical observations, body weights, plasma drug levels, pharmacokinetics and clinical pathology (hematology, coagulation and serum chemistry).

[16] = beagle, dog, in vivo, female dogs, iv 1 mg/kg
[17] = beagle, dog, in vivo, male dogs, iv 1 mg/kg
[18] = both sexes, dog, in vivo, single po administration

CYP 2C9, sequence (P11712 whole entry): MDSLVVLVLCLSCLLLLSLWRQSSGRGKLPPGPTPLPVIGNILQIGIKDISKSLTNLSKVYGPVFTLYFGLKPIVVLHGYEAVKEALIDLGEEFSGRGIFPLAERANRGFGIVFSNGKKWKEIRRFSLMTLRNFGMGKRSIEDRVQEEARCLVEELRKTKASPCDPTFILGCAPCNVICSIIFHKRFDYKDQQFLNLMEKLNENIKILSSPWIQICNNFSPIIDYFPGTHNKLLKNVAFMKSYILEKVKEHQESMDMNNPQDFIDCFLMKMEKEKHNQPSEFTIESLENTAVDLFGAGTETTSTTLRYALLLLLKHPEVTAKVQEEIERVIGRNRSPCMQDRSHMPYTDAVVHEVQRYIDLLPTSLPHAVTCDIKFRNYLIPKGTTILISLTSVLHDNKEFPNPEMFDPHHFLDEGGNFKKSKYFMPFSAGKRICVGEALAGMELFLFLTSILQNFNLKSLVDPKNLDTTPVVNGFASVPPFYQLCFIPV
CYP 2D6, sequence (P10635 whole entry): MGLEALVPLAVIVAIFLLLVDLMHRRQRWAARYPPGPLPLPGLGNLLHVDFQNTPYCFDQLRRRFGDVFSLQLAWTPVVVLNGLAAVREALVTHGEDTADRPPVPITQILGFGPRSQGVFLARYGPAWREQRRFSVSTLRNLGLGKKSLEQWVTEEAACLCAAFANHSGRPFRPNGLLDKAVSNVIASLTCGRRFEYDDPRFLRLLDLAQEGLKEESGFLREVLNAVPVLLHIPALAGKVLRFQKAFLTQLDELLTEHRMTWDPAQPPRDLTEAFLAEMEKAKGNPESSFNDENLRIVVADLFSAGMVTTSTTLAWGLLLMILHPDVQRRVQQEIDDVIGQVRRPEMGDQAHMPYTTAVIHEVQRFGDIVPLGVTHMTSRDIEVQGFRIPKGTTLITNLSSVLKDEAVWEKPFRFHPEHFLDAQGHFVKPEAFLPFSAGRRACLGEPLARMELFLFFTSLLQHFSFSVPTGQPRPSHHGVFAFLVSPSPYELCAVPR

CC1(C)NC(=O)N(c2ccc(F)c(C(C)(F)F)c2)C1=O [Compound IC, 3-(3-(1,1-difluoroethyl)-4-fluorophenyl)-5,5-dimethylimidazolidine-2,4-dione]
IC50 (LAPC4 cells): > 100 µM
solubility kinetic [1]: > 100 µg/mL
chromatographic logD [2]: 2.6
microsomal CLint [3]: 7 µL/min/mg
microsomal CLint [4]: < 7 µL/min/mg
CLint [5]: <1.9 μL/min/10^6
CLint [6]: <1.8 μL/min/10^6
fraction unbound [7]: 0.36
fraction unbound [8]: 0.38
fraction unbound [9]: 0.38
IC50 (CYP 2C9): > 20 µM
IC50 (CYP 2D6): > 20 µM

[2H]C([2H])([2H])C1(C([2H])([2H])[2H])NC(=O)N(c2ccc(F)c(C(C)(F)F)c2)C1=O [Compound IE, 3-(3-(1,1-difluoroethyl)-4-fluorophenyl)-5,5-bis(methyl-d3)imidazolidine-2,4-dione]
IC50 (LAPC4 cells): > 100 µM
inhibition of DHT-induced cell proliferation (LAPC4 cells; concentrations up to 100 μM): did not inhibit
levels of DHT-induced (KLK3, FKBP5) and DHT-repressed (ZFP36L1) transcripts (androgen-receptor): no effect
changes via transcriptomic and ultraresolution microscopy (adult S. mansoni): no significant changes
clearance of S. haematobium infections (S. haematobium): completely cleared
ED50 (S. japonicum [10]; Schistosoma japonicum, oral): 8.5 mg/kg
clearance of S. japonicum infections (S. japonicum [10]; single 25 mg/kg oral dose): completely cleared
ED50 (S. japonicum [11]; Schistosoma japonicum, oral): 6.7 mg/kg
clearance of S. japonicum infections (S. japonicum [11]; single 25 mg/kg oral dose): completely cleared
chromatographic logD [2]: 2.5
microsomal CLint [3]: < 7 µL/min/mg
microsomal CLint [4]: < 7 µL/min/mg
microsomal CLint [12]: < 7 µL/min/mg
microsomal CLint [13]: < 7 µL/min/mg
loss of parent compound, acidic conditions ([14]; 0.01 M and 0.1 M HCl, up to 48 h): minimal loss
loss of parent compound, basic conditions ([14]; 0.01 M and 0.1 M NaOH, after 2 min): significant loss
loss of parent compound, 15% H2O2 ([14]; 15% H2O2 incubation): no significant loss
CLint [5]: <2 μL/min/10^6
hepatocyte CLint ([5]; dog cryopreserved hepatocytes, read-out: in vitro CLint): < 2000 µL/min/1e6 cells
CLint [6]: <2 μL/min/10^6
hepatocyte CLint ([6]; read-out: in vitro CLint): < 2000 µL/min/1e6 cells
fraction unbound [7]: 0.32
fraction unbound [8]: 0.42
% bound [9]: 54%
fraction unbound [9]: 0.462
B:P [15]: 0.78±0.035 and 0.78
AUC (in vivo; beagle, dog, in vivo, female dogs (n = 2), IV 1 mg/kg, read-out: Plasma AUCIV 0-last): 405 µg·h/mL
clearance (in vivo; beagle, dog, in vivo, female dogs (n = 2), IV 1 mg/kg): 1.92 mL/h/kg
AUC (in vivo; beagle, dog, in vivo, female dogs (n = 2), PO 15 mg/kg, read-out: Plasma AUCoral 0-last): 7030 µg·h/mL
Cmax (in vivo; beagle, dog, in vivo, female dogs (n = 2), PO 15 mg/kg, read-out: Plasma Cmax): 42700 ng/mL
AUC(0-t) (in vivo; [16]): 377 µg·h/mL
Cmax (in vivo; beagle, dog, in vivo, female dogs, iv 1 mg/kg, read-out: mean peak plasma concentration (Cmax)): 12500 ng/mL
C0 (in vivo; [16]): 18800 ng/mL
AUC (in vivo; beagle, dog, in vivo, male dogs (n = 2), IV 1 mg/kg, read-out: Plasma AUCIV 0-last): 526 µg·h/mL
clearance (in vivo; beagle, dog, in vivo, male dogs (n = 2), IV 1 mg/kg): 1.44 mL/h/kg
AUC (in vivo; beagle, dog, in vivo, male dogs (n = 2), PO 15 mg/kg, read-out: Plasma AUCoral 0-last): 8800 µg·h/mL
Cmax (in vivo; beagle, dog, in vivo, male dogs (n = 2), PO 15 mg/kg, read-out: Plasma Cmax): 51900 ng/mL
AUC(0-t) (in vivo; [17]): 485 µg·h/mL
Cmax (in vivo; beagle, dog, in vivo, male dogs, iv 1 mg/kg, read-out: mean peak plasma concentration (Cmax)): 6880 ng/mL
C0 (in vivo; [17]): 9460 ng/mL
Tmax (in vivo; both sexes, beagle, dog, in vivo, dogs, po dose groups 15, 75, 150 mg/kg, read-out: time of peak plasma concentrations (Tmax)): 0.25 to 24 h
MTD (in vivo; both sexes, dog, in vivo, 1 mg/kg, single iv administration): > 1 mg/kg
MTD (in vivo; [18]): > 150 mg/kg
NOAEL (in vivo; both sexes, dog, in vivo, single iv administration): ≥ 1 mg/kg
NOAEL (in vivo; [18]): ≥ 150 mg/kg
Bioavailability, determined using AUClast (in vivo; both, beagle, dog, in vivo, po): greater than 100%
increase in AUClast, 150 mg/kg compared to mid-dose (in vivo; both, beagle, dog, in vivo, po, 150 mg/kg): 2-3 fold
PlasmaVSS (in vivo; female, beagle, dog, in vivo, iv, 1 mg/kg): 0.45 L/kg
half-life (in vivo; female, beagle, dog, in vivo, iv, 1 mg/kg, female dogs (n = 2), IV 1 mg/kg, read-out: Apparent t1/2 (converted)): 123 h
half-life (in vivo; female, beagle, dog, in vivo, iv, 1 mg/kg, female dogs, iv 1 mg/kg, read-out: mean elimination phase half-life (t1/2) (converted)): 152 h
BA based on AUC0-last (in vivo; female, beagle, dog, in vivo, po, 15 mg/kg): 115%
half-life (in vivo; female, beagle, dog, in vivo, po, 150 mg/kg, female dogs, po 150 mg/kg, read-out: mean t1/2 (converted)): 402 h
Apparent t1/2 (in vivo; male dogs (n = 2), PO 15 mg/kg): 237 h
PlasmaVSS (in vivo; male, beagle, dog, in vivo, iv, 1 mg/kg): 0.36 L/kg
half-life (in vivo; male, beagle, dog, in vivo, iv, 1 mg/kg, male dogs (n = 2), IV 1 mg/kg, read-out: Apparent t1/2 (converted)): 155 h
half-life (in vivo; male, beagle, dog, in vivo, iv, 1 mg/kg, male dogs, iv 1 mg/kg, read-out: mean elimination phase half-life (t1/2) (converted)): 167 h
BA based on AUC0-last (in vivo; male, beagle, dog, in vivo, po, 15 mg/kg): 111%
half-life (in vivo; male, beagle, dog, in vivo, po, 15 mg/kg, male dogs (n = 2), PO 15 mg/kg, read-out: Apparent t1/2 (converted)): 237 h
half-life (in vivo; male, beagle, dog, in vivo, po, 75 mg/kg, male dogs, po 75 mg/kg, read-out: mean t1/2 (converted)): 341 h
CYP inhibition (CYP 2C9; CYP 2C9, concentrations up to 20 μM, human liver microsomes): did not inhibit
IC50 (CYP 2C9; read-out: CYP inhibition IC50, 2C9): > 20 µM
CYP inhibition (CYP 2D6; CYP 2D6, concentrations up to 20 μM, human liver microsomes): did not inhibit
IC50 (CYP 2D6; read-out: CYP inhibition IC50, 2D6): > 20 µM

— patent US20250353819A1, “ARYL HYDANTOIN COMPOUNDS AND METHODS OF USE” (priority 2022, published 2025)
